Holding throughout (format): cell-based
Conditions in all cases: CreLuc reporter gene assay
For orientation: Reporter assays use an easily measured gene product as a stand-in for the process of interest.

For one assay, the target named is T1, hGIPR (Homo sapiens, UniProt P48546).
T1 construct: expressed in transfected cells; host or cells: CHO cells carrying a CRE-luciferase reporter gene
T1 sequence (P48546 22-466): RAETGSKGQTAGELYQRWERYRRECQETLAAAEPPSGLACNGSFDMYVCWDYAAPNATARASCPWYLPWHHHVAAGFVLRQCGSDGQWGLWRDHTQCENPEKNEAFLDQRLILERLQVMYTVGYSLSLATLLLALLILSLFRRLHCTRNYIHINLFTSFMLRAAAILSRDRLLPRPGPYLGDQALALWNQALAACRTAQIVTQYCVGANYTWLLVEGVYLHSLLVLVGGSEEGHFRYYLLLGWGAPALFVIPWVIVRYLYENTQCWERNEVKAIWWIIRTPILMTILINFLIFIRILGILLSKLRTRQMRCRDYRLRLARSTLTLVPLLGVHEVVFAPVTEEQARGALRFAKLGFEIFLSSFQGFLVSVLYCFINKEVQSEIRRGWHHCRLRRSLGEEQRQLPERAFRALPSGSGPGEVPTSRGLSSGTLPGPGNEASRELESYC
The assay is described as follows: hGIPR CreLuc reporter gene assay in 0.5% and 100% plasma. In outline: (§1)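 HEK cells (GLP-1R, NPY2R) or CHO cells (GIPR) carrying a CRE-luciferase reporter, incubated 4 h at 37 °C with peptides in HBSS/20 mM HEPES pH 7.4 plus 0.5% human plasma, or in 100% plasma. Luminescence read; EC50 from 8-point variable-slope sigmoid fits.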

The next assay has as its target T2, hNPY2R (Homo sapiens, UniProt P49146).
T2 construct: expressed in transfected cells; host or cells: HEK-293 cells carrying a CRE-luciferase reporter gene
T2 sequence (P49146 1-381): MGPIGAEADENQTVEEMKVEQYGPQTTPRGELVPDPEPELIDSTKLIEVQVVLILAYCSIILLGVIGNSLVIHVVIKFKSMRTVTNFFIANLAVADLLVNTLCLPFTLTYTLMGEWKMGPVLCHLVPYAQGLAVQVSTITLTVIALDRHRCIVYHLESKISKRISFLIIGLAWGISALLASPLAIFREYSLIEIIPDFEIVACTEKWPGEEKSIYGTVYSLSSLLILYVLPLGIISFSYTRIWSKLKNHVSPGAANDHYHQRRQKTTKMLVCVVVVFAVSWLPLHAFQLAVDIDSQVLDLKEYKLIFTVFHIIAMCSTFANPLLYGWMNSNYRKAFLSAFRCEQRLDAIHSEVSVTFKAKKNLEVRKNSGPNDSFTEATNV
The assay is described as follows: hNPY2R CreLuc reporter gene assay in 0.5% and 100% plasma. In outline: as §1

For the next assay, the target named is T3, hGLP1R (Homo sapiens, UniProt P43220).
T3 construct: expressed in transfected cells; host or cells: HEK-293 cells carrying a CRE-luciferase reporter gene
T3 sequence (P43220 24-463): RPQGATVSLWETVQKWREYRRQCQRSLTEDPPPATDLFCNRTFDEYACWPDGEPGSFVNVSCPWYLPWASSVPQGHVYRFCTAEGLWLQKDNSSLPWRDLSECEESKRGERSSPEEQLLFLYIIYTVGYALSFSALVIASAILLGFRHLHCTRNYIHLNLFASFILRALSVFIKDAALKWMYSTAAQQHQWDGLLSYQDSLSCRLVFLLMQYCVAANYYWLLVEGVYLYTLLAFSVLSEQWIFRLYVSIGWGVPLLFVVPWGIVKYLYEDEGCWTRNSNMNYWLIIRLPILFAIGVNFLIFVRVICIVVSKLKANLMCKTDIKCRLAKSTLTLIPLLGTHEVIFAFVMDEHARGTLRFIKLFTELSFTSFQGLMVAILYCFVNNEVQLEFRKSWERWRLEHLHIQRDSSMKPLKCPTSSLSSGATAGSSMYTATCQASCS
Description: hGLP1R CreLuc reporter gene assay in 0.5% and 100% plasma. In outline: as §1

Where [1] appears, read: 0.5% human plasma, read-out: hGIPR 0.5% hP.
The mark [2] stands for this setting: 0.5% human plasma, read-out: hNPY2R 0.5% hP.
[3] abbreviates: 100% human plasma, read-out: hNPY2R 100% hP.
Where [4] appears, read: 0.5% human plasma, read-out: hGLP1R 0.5% hP.
Setting [5] is: 100% human plasma, read-out: hGIPR 100% hP.
Setting [6] is: 100% human plasma, read-out: hGLP1R 100% hP.

pEC50: −log10 of the molar value. Where two headings read alike, the source gives them in different places. Starred links: 1 amine or outer side, 2 acyl side, 3 side chain; linkers in the order of their positions; H or OH if unused. Non-standard residues stand in square brackets, D forms with d. Groups on a side chain read outwards from the residue. No end group written: not given here. *: point of attachment. C20 diacid = O=C(O)CCCCCCCCCCCCCCCCCCC(=O)*; C18 diacid = O=C(O)CCCCCCCCCCCCCCCCC(=O)*; γGlu = O=C(O)[C@H](CCC(=O)[*:2])N[*:1]; εLys = N[C@@H](CCCCN[*:1])C(=O)[*:2]; AEEA = NCCOCCOCC(=O)O; Aib = CC(C)(N)C(=O)O

Regarding `CC[C@H](C)[C@H](NC(=O)[C@H](CC(C)C)NC(=O)[C@H](Cc1c[nH]c2ccccc12)NC(=O)[C@H](CCC(N)=O)NC(=O)[C@@H](NC(=O)[C@H](Cc1ccccc1)NC(=O)[C@H](CCC(=O)O)NC(=O)C(C)(C)NC(=O)[C@H](CCC(N)=O)NC(=O)[C@H](C)NC(=O)[C@H](CCC(N)=O)NC(=O)[C@H](CCCCN)NC(=O)[C@H](CCC(=O)O)NC(=O)[C@H](CC(C)C)NC(=O)C(C)(C)NC(=O)[C@@H](NC(=O)[C@H](CO)NC(=O)[C@H](Cc1ccc(O)cc1)NC(=O)[C@H](CC(=O)O)NC(=O)[C@H](CO)NC(=O)[C@@H](NC(=O)[C@H](Cc1ccccc1)NC(=O)[C@@H](NC(=O)CNC(=O)[C@H](CCC(=O)O)NC(=O)C(C)(C)NC(=O)[C@@H](N)Cc1ccc(O)cc1)[C@@H](C)O)[C@@H](C)O)[C@@H](C)CC)C(C)C)C(=O)N[C@@H](CCCCNC(=O)[C@H](CCC(=O)O)NC(=O)[C@H](CCC(=O)O)NC(=O)[C@H](CCC(=O)O)NC(=O)[C@H](CCC(=O)O)NC(=O)[C@H](CCC(=O)O)NC(=O)CCCCCCCCCCCCCCCCC(=O)O)C(=O)NCC(=O)NCC(=O)N1CCC[C@H]1C(=O)N[C@@H](CO)C(=O)N[C@@H](CCC(=O)O)C(=O)NCC(=O)N[C@@H](C)C(=O)N[C@@H](CO)C(=O)N[C@@H](CC(C)C)C(=O)N[C@@H](CCCNC(=N)N)C(=O)N[C@@H](Cc1c[nH]cn1)C(=O)N[C@@H](Cc1ccc(O)cc1)C(=O)N[C@@H](Cc1ccc(O)cc1)C(=O)N[C@@H](CC(N)=O)C(=O)N[C@@H](Cc1c[nH]c2ccccc12)C(=O)N[C@@H](CC(C)C)C(=O)N[C@H](C(=O)N[C@@H](CCCNC(=N)N)C(=O)N[C@@H](CCC(N)=O)C(=O)N[C@@H](CCCNC(=N)N)C(=O)N[C@@H](Cc1ccc(O)cc1)C(N)=O)[C@@H](C)O` [Compound 176, Y-Aib-E-G-T-F-T-S-D-Y-S-I-Aib-L-E-K-Q-A-Q-Aib-E-F-V-Q-W-L-I-K(1,3)-GGPSEGASLRHYYNWLTRQRY-NH2.C18DA-E-E-E-E-E(1,2)], the pEC50 was 9.17 at hGIPR (setting [1]), 7.52 at hNPY2R (setting [2]), 6.70 on hNPY2R (setting [3]) and 9.54 on hGLP1R (setting [4]).
Regarding “H-Y[Aib]EGTFTSDYSI[Aib]LEKQAQ[Aib]AFVEWLIK([εLys-γGlu-γGlu-γGlu-γGlu-γGlu-γGlu-C20 diacid])GGPSSGASIRHYYNWLTRQRY-NH2 [Compound 132, Y-Aib-E-G-T-F-T-S-D-Y-S-I-Aib-L-E-K-Q-A-Q-Aib-A-F-V-E-W-L-I-K(1,3)-GGPSSGASIRHYYNWLTRQRY-NH2.C20DA-gGlu-gGlu-gGlu-gGlu-gGlu-gGlu-eLys(1,2)]”, the pEC50 on hGIPR (setting [1]) was 9.66; at hNPY2R (setting [3]), 7.34; at hGLP1R (setting [4]) it was 9.85.
Take “Y[Aib]EGTFTSDYSI[Aib]LEKQAQ[Aib]AFVQWLIK([AEEA-AEEA-γGlu-γGlu-γGlu-γGlu-C20 diacid])GGPEEPASLRHYYNWLTRQRY-NH2 [Compound 77, Y-Aib-E-G-T-F-T-S-D-Y-S-I-Aib-L-E-K-Q-A-Q-Aib-A-F-V-Q-W-L-I-K(1,3)-GGPEEPASLRHYYNWLTRQRY-NH2.C20DA-gGlu-gGlu-gGlu-gGlu-OEG-OEG(1,2)]”: the pEC50 at hGIPR (setting [1]) is 9.49; on hNPY2R (setting [2]) it was 7.86; on hNPY2R (setting [3]), 7.33; on hGLP1R (setting [4]) it was 9.62.
As to “H-Y[Aib]EGTFTSDYSI[Aib]LEKQAQ[Aib]AFVEWLIK([εLys-γGlu-γGlu-γGlu-γGlu-γGlu-γGlu-C20 diacid])GGPSYGASLRHYYNWLTRQRY-NH2 [Compound 232, Y-Aib-E-G-T-F-T-S-D-Y-S-I-Aib-L-E-K-Q-A-Q-Aib-A-F-V-E-W-L-I-K(1,3)-GGPSYGASLRHYYNWLTRQRY-NH2.C20DA-gGlu-gGlu-gGlu-gGlu-gGlu-gGlu-eLys(1,2)]”, the pEC50 on hGIPR (setting [1]) was 9.72; on hGIPR (setting [5]) it was 8.79; on hNPY2R (setting [2]) it was 7.82; on hNPY2R (setting [3]) it was 7.43; on hGLP1R (setting [4]) it was 9.68.
For “Y[Aib]EGTFTSDYSI[Aib]LEKQAQ[Aib]AFVEWLIK([εLys-γGlu-γGlu-γGlu-γGlu-γGlu-C20 diacid])GGPESPASLRHYYNWLTRQRY-NH2 [Compound 70, Y-Aib-E-G-T-F-T-S-D-Y-S-I-Aib-L-E-K-Q-A-Q-Aib-A-F-V-E-W-L-I-K(1,3)-GGPESPASLRHYYNWLTRQRY-NH2.C20DA-gGlu-gGlu-gGlu-gGlu-gGlu-eLys(1,2)]”, the pEC50 is 9.55 on hGIPR (setting [1]), 8.58 at hGIPR (setting [5]), 7.79 on hNPY2R (setting [2]) and 9.52 at hGLP1R (setting [4]).
Regarding “H-Y[Aib]EGTFTSDYSI[Aib]LEKQAQ[Aib]AFVEWLIK([εLys-γGlu-γGlu-γGlu-γGlu-γGlu-γGlu-C20 diacid])GGPSEYVSIRHYYNWLTRQRY-NH2 [Compound 42, Y-Aib-E-G-T-F-T-S-D-Y-S-I-Aib-L-E-K-Q-A-Q-Aib-A-F-V-E-W-L-I-K(1,3)-GGPSEYVSIRHYYNWLTRQRY-NH2.C20DA-gGlu-gGlu-gGlu-gGlu-gGlu-gGlu-eLys(1,2)]”, the pEC50 on hGIPR (setting [1]) is 9.82; on hNPY2R (setting [3]), 7.72; at hGLP1R (setting [4]) it was 9.44.
For the molecule “H-Y[Aib]EGTFTSDYSI[Aib]LEKQAQ[Aib]EFVEWLIK([AEEA-AEEA-γGlu-γGlu-γGlu-C18 diacid])GGPSSGASLRHYYNWLTRQRY-NH2 [Compound 171, Y-Aib-E-G-T-F-T-S-D-Y-S-I-Aib-L-E-K-Q-A-Q-Aib-E-F-V-E-W-L-I-K(1,3)-GGPSSGASLRHYYNWLTRQRY-NH2.C18DA-gGlu-gGlu-gGlu-OEG-OEG(1,2)]”, the pEC50 is 9.70 at hGIPR (setting [1]); 9.08 at hGIPR (setting [5]); 7.52 at hNPY2R (setting [3]); 9.57 on hGLP1R (setting [4]); 8.38 on hGLP1R (setting [6]).
With “H-Y[Aib]EGTFTSDYSI[Aib]LEKQAQ[Aib]EFVQWLIK([γGlu-γGlu-γGlu-γGlu-γGlu-γGlu-C18 diacid])GGPSEGASLRHYYNWLTRQRY-NH2 [Compound 151, Y-Aib-E-G-T-F-T-S-D-Y-S-I-Aib-L-E-K-Q-A-Q-Aib-E-F-V-Q-W-L-I-K(1,3)-GGPSEGASLRHYYNWLTRQRY-NH2.C18DA-gGlu-gGlu-gGlu-gGlu-gGlu-gGlu(1,2)]”, the pEC50 is 9.04 at hGIPR (setting [1]), 7.72 on hNPY2R (setting [2]), 9.59 on hGLP1R (setting [4]) and 8.36 on hGLP1R (setting [6]).
Regarding “H-Y[Aib]EGTFTSDYSI[Aib]LEKQAE[Aib]AFVQWLIK([εLys-γGlu-γGlu-γGlu-γGlu-C18 diacid])GGPSEGASLRHYYNWLTRQRY-NH2 [Compound 174, Y-Aib-E-G-T-F-T-S-D-Y-S-I-Aib-L-E-K-Q-A-E-Aib-A-F-V-Q-W-L-I-K(1,3)-GGPSEGASLRHYYNWLTRQRY-NH2.C18DA-gGlu-gGlu-gGlu-gGlu-eLys(1,2)]”, the pEC50 at hGIPR (setting [1]) was 9.77; at hGIPR (setting [5]), 8.90; at hNPY2R (setting [2]), 7.94; at hNPY2R (setting [3]) it was 7.41; on hGLP1R (setting [4]) it was 9.66; at hGLP1R (setting [6]), 8.11.
In the case of “H-Y[Aib]EGTFTSDYSI[Aib]LEKQAQ[Aib]AFVEWLIK([γGlu-γGlu-γGlu-γGlu-γGlu-C18 diacid])GGPSEGASLRHYYNWLTRQRY-NH2 [Compound 292, Y-Aib-E-G-T-F-T-S-D-Y-S-I-Aib-L-E-K-Q-A-Q-Aib-A-F-V-E-W-L-I-K(1,3)-GGPSEGASLRHYYNWLTRQRY-NH2.C18DA-gGlu-gGlu-gGlu-gGlu-gGlu(1,2)]”, the pEC50 at hGIPR (setting [1]) is 9.80; at hNPY2R (setting [2]), 7.70; on hGLP1R (setting [4]) it was 9.89.
With “H-Y[Aib]EGTFTSDYSI[Aib]LEKQAQ[Aib]AFVQWLIK([AEEA-AEEA-γGlu-γGlu-γGlu-γGlu-C18 diacid])GGPESGASLRHYYNWLTRQRY-NH2 [Compound 58, Y-Aib-E-G-T-F-T-S-D-Y-S-I-Aib-L-E-K-Q-A-Q-Aib-A-F-V-Q-W-L-I-K(1,3)-GGPESGASLRHYYNWLTRQRY-NH2.C18DA-gGlu-gGlu-gGlu-gGlu-OEG-OEG(1,2)]”, the pEC50 was 9.62 at hGIPR (setting [1]); 9.51 on hGIPR (setting [5]); 7.99 on hNPY2R (setting [2]); 10.30 on hGLP1R (setting [4]); 8.70 at hGLP1R (setting [6]).

The values above are taken from US20240247080A1, “GLP1/GIP/NPY2 RECEPTOR TRIPLE AGONISTS” (Boehringer Ingelheim International GmbH, priority 2022, published 2024).
